Measured values from US9132164B2, “Pharmaceutical compositions comprising angiotensin-(1-9), derivatives thereof, or a vector expressing ACE2, useful for treating cardiovascular, pulmonary, cerebral, and/or renal remodeling” (PONTIFICIA UNIVERSIDAD CATOLICA DE CHILE, priority 2008, dated 2015).
Marks after values point to notes of the source that are not given here.

Assays:
Format in all cases: in vivo, Sprague Dawley rats
[1] = Circulating bradykinin levels post coronary artery ligation (HPLC and radioimmunoassay); conditions: for Bk-(1-7) / Bk-(1-7)/Bk-(1-9) / Bk-(1-9): plasma, 10 mg/kg daily, 8 weeks, ± SEM
Experimental: (§1) Male Sprague Dawley rats were kept in cages with access to water and food ad libitum. This procedure was performed in accordance with the Guide for the Care and Use of Laboratory Animals, published by “U.S. National Institutes of Health” (NIH publication No 85-23, revised 1985) and was approved by our Institutional Ethics Committee. For studies with enalapril and candesartan, 71 adult normotensive rats were randomly separated into two groups and underwent a sham surgery (surgery without ligation of the coronary artery, n=34) or myocardial infarction following a surgery with ligation of the left coronary artery (infarction, n=37) as previously described (Ocaranza et al, Hypertension 48:572-8, 2006). Briefly, the left coronary artery was ligated between the pulmonary artery exit and left auricle with a 7-0 silk suture under aseptic conditions in rats anaesthetized with ketamine-HCl/xilazine (35/7 mg/kg intraperitoneal, respectively). Sham rats underwent the same surgical procedure except that the suture was not passed around the left coronary artery. Myocardial infarction was confirmed by electrocardiography 24 h following surgery. Mortality rate from myocardial infarction following ligation of the left coronary artery was 25% within 48 h after occlusion. Infarct size in survivors was determined by planimetry of endocardial circumference of left ventricle on histological sections. Sham and infracted rats were randomized to receive the carrier, candesartan (10 mg/kg of body weight daily) or enalapril (10 mg/kg of body weight daily) by gavage for 8 weeks, beginning 48 h after infarction.
(§2) Plasma angiotensin and bradykinin levels were determined as described by (Ocaranza et al, Hypertension 48:572-8, 2006; Ocaranza et al, Life Sci. 78:1535-42, 2005; Campbell et al, J. Mol. Cell. Cardiol. 27:1545-60, 1995). Briefly, rats were anesthetized with a combination of ketamin (125 mg/kg) and xilazin (12.5 mg/kg) administered via intraperitoneal injection. […] Plasmas were stored at −80° C. until their extraction using C18 Sep-Pak cartridges, and peptides were acetylated. Acetylated angiotensin II, angiotensin I, angiotensin-(1-7), angiotensin-(1-9), bradykinin-(1-7) and bradykinin-(1-9) were separated by high performance liquid chromatography (HPLC) and were detected by radioimmunoassay.
(§3) Plasma angiotensin and bradykinin (BK) levels were determined by high performance liquid chromatography and radioimmunoassay as described in example No 2. Angiotensin-I levels are lower in the infarcted rats group, associated with higher levels of angiotensin-II. However, plasma angiotensin-(1-7) and angiotensin-(1,9) levels were similar in sham rats and infarcted rats. Enalapril and candesartan increase both angiotensin-(1-9) circulating levels, and -(1-7)/angiotensin-II and angiotensin-(1-9)/angiotensin-I ratios in both experimental groups. Plasma angiotensin-(1-7) levels were increased by candesartan, and bradykinin-(1-9) levels were increased by enalapril both in infarcted rats and sham rats (Tables 3 and 4).

[2] = Circulating angiotensin levels post coronary artery ligation (HPLC and radioimmunoassay); conditions: for Ang I / Ang II / Ang II/Ang I / Ang-(1 -7) / Ang-(1-7)/Ang II / Ang-(1 -9) / Ang-(1-9)/Ang I: plasma, 10 mg/kg daily, 8 weeks, average ± SEM
Experimental: as §1, §2, §3

[3] = system: sham and infarcted rats (left coronary artery ligation); assay: Effect of candesartan and enalapril on blood pressure, morphometry and function of the left ventricle after coronary artery ligation; conditions: for Infarct size LV / LVAWT / LVEDD / LVESD / LVFS / SBP / LLVWT / LVP content / LVW/BW / mRNA ANF / β-MHC: 10 mg/kg daily by gavage, 8 weeks, average ± SEM
Experimental: as §1
Systolic blood pressure (SBP) was determined by using the “tail-cuff” method by investigators who were blind to the treatment group. Left ventricle function was determined by transthoracic bidimensional echocardiography using a Sonos 5000 equipped with a 5 to 12 MHz sectorial electronic ultraband S12 Philips transducer. The following echocardiographic parameters were determined: left ventricular end-systolic diameter (LVESD), left ventricular end diastolic diameter (LVEDD), left ventricular fractional shortening (LVFS), left ventricular anterior wall thickness (LVAWT), and left ventricular posterior wall thickness (LLVWT).
The extent of left ventricular hypertrophy was calculated by the relationship among left ventricular weight (LVW), body weight (BW), mRNA relative levels of the auricular natriuretic factor (ANF), left ventricular protein content (LVP), and protein levels of β-myosinheavy chain (β-MHC) as described in (Ocaranza et al, Hypertension 48:572-8, 2006).
Left ventricular hypertrophy (LVH) was assessed by ecocardiography, relative left ventricle weight (RLVW, mg left ventricle weight (LVW)/body weight (BW)), relative levels of auricular natriuretic factor (ANF) mRNA, left ventricle protein (LVP) content, and β-myosin heavy chain (β-MHC) content are described in example 1.

[4] = both experimental groups (sham and infarcted rats)

For `CCOc1nc2cccc(C(=O)O)c2n1Cc1ccc(-c2ccccc2-c2nnn[nH]2)cc1` [candesartan], the “Bk-(1-7)” value ([1]; infarcted rats (MI)) was 5.44 ± 1.60 fmol/g, the “Bk-(1-7)/Bk-(1-9)” value ([1]; infarcted rats (MI)) was 1.18 ± 0.21^¶ and the “Bk-(1-9)” value ([1]; infarcted rats (MI)) was 4.08 ± 1.43^¶ fmol/g. For the same compound, the “Bk-(1-7)” value ([1]; sham rats) was 4.41 ± 1.5 fmol/g, the “Bk-(1-7)/Bk-(1-9)” value ([1]; sham rats) was 1.69 ± 0.51 and the “Bk-(1-9)” value ([1]; sham rats) was 4.30 ± 1.36 fmol/g. For the same compound, the “Ang I” value ([2]; infarcted rats (MI)) was 30.7 ± 1.9 fmol/g, the “Ang II” value ([2]; infarcted rats (MI)) was 34.6 ± 4.2*^¶ fmol/g and the “Ang II/Ang I” value ([2]; infarcted rats (MI)) was 4.5 ± 0.6*^#¶. The “Ang-(1 -7)” value ([2]; infarcted rats (MI)) was 14.4 ± 2.7*^#¶ fmol/g, the “Ang-(1-7)/Ang II” value ([2]; infarcted rats (MI)) was 1.02 ± 0.06*^#¶ and the “Ang-(1 -9)” value ([2]; infarcted rats (MI)) was 43.8 ± 2.9 *^#¶ fmol/g. For the same compound, the “Ang-(1-9)/Ang I” value ([2]; infarcted rats (MI)) was 2.8 ± 1.1*^#¶, the “Ang I” value ([2]; sham rats) was 22.6 ± 5.3 fmol/g and the “Ang II” value ([2]; sham rats) was 38.6 ± 7.2 fmol/g. The “Ang II/Ang I” value ([2]; sham rats) was 3.3 ± 0.9, the “Ang-(1 -7)” value ([2]; sham rats) was 10.9 ± 1.6*^#¶ fmol/g and the “Ang-(1-7)/Ang II” value ([2]; sham rats) was 0.49 ± 0.15. For the same compound, the “Ang-(1 -9)” value ([2]; sham rats) was 36.2 ± 4.1 fmol/g, the “Ang-(1-9)/Ang I” value ([2]; sham rats) was 2.6 ± 0.7 and the “Infarct size LV” value ([3]; infarcted rats (MI)) was 30 ± 1%. It also gave an LVAWT ([3]; infarcted rats (MI)) of 0.9 ± 0.4 mm, an LVEDD ([3]; infarcted rats (MI)) of 8.0 ± 0.3 mm and an LVESD ([3]; infarcted rats (MI)) of 5.9 ± 0.4 mm. The LVFS ([3]; infarcted rats (MI)) was 22 ± 2 %, the SBP ([3]; infarcted rats (MI)) was 88 ± 4*^#¶ mm Hg and the LLVWT ([3]; sham rats) was 1.1 ± 0.0 mm. It also gave an LVAWT ([3]; sham rats) of 1.1 ± 0.4 mm, an LVEDD ([3]; sham rats) of 7.7 ± 0.2 mm and an LVESD ([3]; sham rats) of 5.1 ± 0.1 mm. For the same compound, the LVFS ([3]; sham rats) was 30 ± 2%, the LVP content ([3]; sham rats) was 11.6 ± 1.1 mg and the LVW/BW ([3]; sham rats) was 2.7 ± 0.1 mg/g. The SBP ([3]; sham rats) was 84 ± 4*^#¶ mm Hg, the “mRNA ANF” value ([3]; sham rats) was 0.7 ± 0.2 times and the β-MHC ([3]; sham rats) was 1.1 ± 0.2 times.
In the case of `CCOC(=O)[C@H](CCc1ccccc1)N[C@@H](C)C(=O)N1CCC[C@H]1C(=O)O` [enalapril], the “bradykinin-(1-9) levels” value ([1]; both in infarcted rats and sham rats) is reported as “increased”, the “Bk-(1-7)” value ([1]; infarcted rats (MI)) is reported as 1.40 ± 0.17 fmol/g and the “Bk-(1-7)/Bk-(1-9)” value ([1]; infarcted rats (MI)) is reported as 0.17 ± 0.06. For the same compound, the “Bk-(1-9)” value ([1]; infarcted rats (MI)) was 7.89 ± 1.22 fmol/g, the “Bk-(1-7)” value ([1]; sham rats) was 1.48 ± 0.46 fmol/g and the “Bk-(1-7)/Bk-(1-9)” value ([1]; sham rats) was 0.19 ± 0.04. The “Bk-(1-9)” value ([1]; sham rats) was 9.53 ± 2.99 fmol/g, the “-(1-7)/angiotensin-II ratio” value [2, 4] was “increase” and the “angiotensin-(1-9) circulating levels” value [2, 4] was “increase”. The “angiotensin-(1-9)/angiotensin-I ratio” value [2, 4] was “increase”, the “Ang I” value ([2]; infarcted rats (MI)) was 32.4 ± 0.8 fmol/g and the “Ang II” value ([2]; infarcted rats (MI)) was 23.3 ± 5.4 fmol/g. For the same compound, the “Ang II/Ang I” value ([2]; infarcted rats (MI)) was 0.72 ± 0.1, the “Ang-(1 -7)” value ([2]; infarcted rats (MI)) was 3.8 ± 0.6 fmol/g and the “Ang-(1-7)/Ang II” value ([2]; infarcted rats (MI)) was 0.26 ± 0.02. The “Ang-(1 -9)” value ([2]; infarcted rats (MI)) was 29 ± 3 fmol/g, the “Ang-(1-9)/Ang I” value ([2]; infarcted rats (MI)) was 0.89 ± 0.02 and the “Ang I” value ([2]; sham rats) was 30.7 ± 1.0 fmol/g. For the same compound, the “Ang II” value ([2]; sham rats) was 15.4 ± 3.8 fmol/g, the “Ang II/Ang I” value ([2]; sham rats) was 0.45 ± 0.05 and the “Ang-(1 -7)” value ([2]; sham rats) was 4.1 ± 0.5 fmol/g. For the same compound, the “Ang-(1-7)/Ang II” value ([2]; sham rats) was 0.25 ± 0.07, the “Ang-(1 -9)” value ([2]; sham rats) was 25 ± 5 fmol/g and the “Ang-(1-9)/Ang I” value ([2]; sham rats) was 0.75 ± 0.03. For the same compound, the “Infarct size LV” value ([3]; infarcted rats (MI)) was 31 ± 2%, the LLVWT ([3]; infarcted rats (MI)) was 1.5 ± 0.1 mm and the LVAWT ([3]; infarcted rats (MI)) was 0.9 ± 0.1 mm. It also gave an LVEDD ([3]; infarcted rats (MI)) of 7.1 ± 0.2 mm, an LVESD ([3]; infarcted rats (MI)) of 5.4 ± 0.3 mm and an LVFS ([3]; infarcted rats (MI)) of 21 ± 1 %. For the same compound, the SBP ([3]; infarcted rats (MI)) was 110 ± 3 mm Hg, the left ventricle dilatation ([3]; infarcted rats, week 8) was “significantly prevented” and the LLVWT ([3]; sham rats) was 1.4 ± 0.0 mm. For the same compound, the LVAWT ([3]; sham rats) was 1.3 ± 0.2 mm, the LVEDD ([3]; sham rats) was 7.5 ± 0.3 mm and the LVESD ([3]; sham rats) was 5.2 ± 0.1 mm. It also gave an LVFS ([3]; sham rats) of 30 ± 1%, an LVP content ([3]; sham rats) of 12.4 ± 0.8 mg and an LVW/BW ([3]; sham rats) of 2.7 ± 0.2 mg/g. For the same compound, the SBP ([3]; sham rats) was 113 ± 2 mm Hg, the “mRNA ANF” value ([3]; sham rats) was 0.9 ± 0.1 times and the β-MHC ([3]; sham rats) was 1.3 ± 0.2 times.
